Columns and labels:
[1] = biological target: T1, TgATP4^G419S-HA (membranes from T. gondii tachyzoites) (Toxoplasma gondii, UniProt B9QMJ0, G419S); experiment: Membrane ATPase assay, ATP4-associated (Na+-dependent) ATPase activity; assay type: biochemical; details: for IC50 for ATP4-associated ATPase activity: membranes from TgATP4G419S-HA, mean ± SEM
T1 sequence (B9QMJ0 1-1338 G419S): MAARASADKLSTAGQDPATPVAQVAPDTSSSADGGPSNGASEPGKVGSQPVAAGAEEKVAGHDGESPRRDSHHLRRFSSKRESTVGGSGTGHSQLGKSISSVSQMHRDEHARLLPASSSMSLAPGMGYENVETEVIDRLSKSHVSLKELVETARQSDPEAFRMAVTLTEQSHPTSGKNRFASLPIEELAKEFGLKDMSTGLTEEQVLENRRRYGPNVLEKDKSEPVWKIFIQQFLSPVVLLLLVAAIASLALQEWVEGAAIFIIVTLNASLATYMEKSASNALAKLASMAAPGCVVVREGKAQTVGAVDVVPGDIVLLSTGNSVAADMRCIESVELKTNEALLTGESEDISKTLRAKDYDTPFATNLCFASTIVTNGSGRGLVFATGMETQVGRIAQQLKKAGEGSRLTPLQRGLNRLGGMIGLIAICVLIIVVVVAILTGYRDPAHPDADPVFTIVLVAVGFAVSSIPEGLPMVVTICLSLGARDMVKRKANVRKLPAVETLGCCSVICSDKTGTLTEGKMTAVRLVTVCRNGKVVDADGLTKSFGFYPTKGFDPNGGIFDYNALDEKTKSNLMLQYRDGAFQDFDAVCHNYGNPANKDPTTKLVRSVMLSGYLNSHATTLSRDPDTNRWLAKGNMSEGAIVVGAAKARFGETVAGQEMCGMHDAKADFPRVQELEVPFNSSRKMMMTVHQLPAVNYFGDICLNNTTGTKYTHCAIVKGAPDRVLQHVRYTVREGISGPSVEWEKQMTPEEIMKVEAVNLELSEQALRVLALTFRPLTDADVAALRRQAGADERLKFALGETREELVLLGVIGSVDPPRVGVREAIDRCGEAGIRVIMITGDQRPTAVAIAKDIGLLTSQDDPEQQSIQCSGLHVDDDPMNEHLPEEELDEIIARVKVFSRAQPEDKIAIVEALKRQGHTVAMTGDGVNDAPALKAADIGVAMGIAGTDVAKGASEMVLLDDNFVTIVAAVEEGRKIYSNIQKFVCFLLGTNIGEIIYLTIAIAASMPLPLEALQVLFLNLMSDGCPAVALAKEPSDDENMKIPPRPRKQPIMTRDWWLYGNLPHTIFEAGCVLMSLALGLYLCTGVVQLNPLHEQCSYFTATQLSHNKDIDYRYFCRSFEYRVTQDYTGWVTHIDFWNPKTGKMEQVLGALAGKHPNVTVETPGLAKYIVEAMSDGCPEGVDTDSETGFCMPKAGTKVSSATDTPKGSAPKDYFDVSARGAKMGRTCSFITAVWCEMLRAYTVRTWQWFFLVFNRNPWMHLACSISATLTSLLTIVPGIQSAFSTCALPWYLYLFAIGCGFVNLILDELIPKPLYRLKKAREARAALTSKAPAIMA
Experimental: Membranes from isolated P. falciparum or extracellular T. gondii parasites were prepared by lysing parasites in ice-cold deionized water containing a 1:500 dilution of Protease Inhibitor Cocktail Set III (Merck Millipore), then washing the membrane preparation three times in ice-cold deionized water (with protease inhibitors present for the first two washes)[15]. Protein concentrations in the membrane preparations were measured using a Bradford assay. The PiColorLock Gold Phosphate Detection System (Innova Biosciences) was used to measure the production of Pi from hydrolysis of ATP[15]. Membrane preparations were diluted in either a high Na^+ solution (yielding final conditions in the reactions of 150 mM NaCl, 20 mM KCl, 2 mM MgCl2, 50 mM Tris, pH 7.2) or a Na^+-free solution (yielding final conditions of 150 mM choline chloride, 20 mM KCl, 2 mM MgCl2, 50 mM Tris, pH 7.2) to achieve a total protein concentration of 50 μg/mL. […] The reactions were performed at 37 °C, and were initiated by the addition of 1 mM ATP (Na2ATP۰3H2O; MP Biomedicals) and terminated 10 min later by adding 100 μL of reaction mixture (in duplicate) to 25 μL “Gold mix” in a 96-well plate. “Stabiliser” was added 3 min later, and the plates incubated at room temperature in the dark for 60 min before measuring absorbance at 635 nm. Background values (averaged from wells containing all components, but to which ATP was not added until after the membrane was exposed to Gold mix) were subtracted from the data. For each treatment, the ATPase activity associated with the (Na^+-dependent) PfATP4 and TgATP4 proteins was calculated by subtracting data obtained in the low Na^+ condition (containing only the 2 mM Na^+ introduced on addition of 1 mM Na2ATP) from that obtained in the high Na^+ condition.

NF54^G358S-3 parasites = experiment: P. falciparum proliferation assay (72 h, flow cytometry, SYBR Green I/MitoTracker); assay type: cell-based; details: Plasmodium falciparum, NF54G358S-3, mean ± SEM, n = 3
Experimental: Two types of parasite proliferation assays were employed in this study, with both yielding highly consistent results. For the NF54-based lines and Dd2-B2-PfATP4^G358S and its parent, assays were initiated with cultures containing predominantly ring-stage parasites with a parasitaemia of 0.3% and a haematocrit of 1%. All assays using NF54 were performed in culture media containing 10% O + human serum. The duration of the assays was 72 h and the concentration of DMSO was <0.5% (v/v). Serial dilutions of the test compounds were performed using a Tecan D300e digital dispenser, with parasite cultures added manually. Parasite survival was assessed by flow cytometry on an Intellicyt iQue3 (Essen Bioscience), with 1× SYBR Green I (Invitrogen) and 200 nM MitoTracker Deep Red FM (Invitrogen) used to stain the nucleus and the mitochondria in live parasites, respectively. The gating strategy used to quantify parasite survival, performed using FlowJo version 10 (FlowJo LLC.), is illustrated in Supplementary Fig. 9. IC50 and IC90 values were calculated by linear interpolation of the dose-response data.

[2] = tested on: MMV665949-selected Culture 1 (from Dd2-Polδ; not cloned); experiment: P. falciparum proliferation assay (72 h, fluorescent DNA-intercalating dye); assay type: cell-based, Plasmodium falciparum; details: Plasmodium falciparum, DD2; MMV665949-selected Culture 1; mean ± SEM, n = 3; read-out: IC50 value
Experimental: For experiments with all other parasites, the effects of compounds of interest on parasite proliferation was measured in 96-well plates containing serial dilutions of the compounds in culture medium, with a fluorescent DNA-intercalating dye used to detect surviving parasites. The assays were initiated with erythrocytes infected with predominantly ring-stage parasites, and the starting parasitaemia and haematocrit were both 1%. […] Fluorescence was measured using a FLUOstar OPTIMA plate reader (BMG LABTECH), with OPTIMA version 2.20R2 and MARS Data Analysis Software version 3.01 R2 (BMG LABTECH).

[3] = clinical trials, sustained periods; cited from earlier work
[4] = TgATP4G419S-HA membranes, source data of Table 1 (nM there)

SMILES | IC50 for inhibition of ATP4-associated ATPase activity, MEAN [1, 4] | IC50 for inhibition of ATP4-associated ATPase activity ([1]; TgATP4G419S-HA membranes, single experiments, source data of Table 1 (nM there)) | IC50 for ATP4-associated ATPase activity [1] | IC50 (NF54^G358S-3 parasites) [nM] | IC50 [2] [nM] | concentration reached in human plasma [3]
N#Cc1cc(NC(=O)[C@H]2c3ccccc3C(=O)N(CC(F)(F)F)[C@@H]2c2cccnc2)ccc1F [(+)-SJ733] | >4000 | >4000 | > 4000 (3) nM |  |  | 
C[C@H]1Cc2c([nH]c3cc(Cl)c(F)cc23)[C@@]2(N1)C(=O)Nc1ccc(Cl)cc12 [Cipargamin] | 287.6 |  | 288 ± 111 (4) (P = 0.05) nM | 2200 ± 700 | 1.42 ± 0.3 | supramicromolar concentrations

— article PMC9525273 (Nature Communications, 2022)
